According to ChEMBL document CHEMBL5625206, “Design, synthesis, and evaluation of novel pleuromutilin aryl acrylate derivatives as promising broad-spectrum antibiotics especially for combatting multi-drug resistant gram-negative bacteria” (Eur J Med Chem, 2023):
≈ marks a conversion by molar mass, not a printed value. Calls of active or inactive are those of the source. The rule behind the calls is not given here.

Columns and labels:
[1] = Toxicity in fasted female Sprague-Dawley rat assessed as body weight at 148 mg/kg, IG measured after 14 days (reference value: 214.3 +/- 9.8 g); format: organism-based; settings: in vivo, po, 336 h, time 14 day
[2] = Toxicity in fasted female Sprague-Dawley rat assessed as animal growth rate at 500 mg/kg, IG measured for 14 days (reference value: 29.85 +/- 4.97 g); format: organism-based; settings: in vivo, po, 336 h, time 14 day
Escherichia coli [3] = test: Bactericidal activity against Escherichia coli ATCC 25922 assessed as reduction in colony count at MIC incubated for 24 hrs by time kill assay relative to control; format: functional
[4] = Toxicity in fasted male Sprague-Dawley rat assessed as relative liver weight ratio at 224 mg/kg, IG measured for 14 days (reference value: 3.616 +/- 0.286); format: organism-based; settings: in vivo, po, 336 h, time 14 day
Escherichia coli [5] = test: Disruption of cell membrane integrity in Escherichia coli ATCC 25922 at 4 times MIC incubated for 4 hrs by FESEM analysis; format: functional, organism-based
[6] = Clearance in fasted Sprague-Dawley rat at 1 mg/kg, iv by LC-MS/MS analysis; format: ADME, organism-based; settings: in vivo
[7] = Toxicity in fasted male Sprague-Dawley rat assessed as body weight at 100 mg/kg, IG measured after 7 days (reference value: 260.5 +/- 12.7 g); format: organism-based; settings: in vivo, po, 168 h, time 7 day
[8] = Toxicity in fasted female Sprague-Dawley rat assessed as relative heart weight ratio at 148 mg/kg, IG measured for 14 days (reference value: 0.429 +/- 0.016); format: organism-based; settings: in vivo, po, 336 h, time 14 day
Staphylococcus aureus [9] = test: Antibacterial activity against methicillin-resistant Staphylococcus aureus 575 clinical isolate assessed as bacterial growth inhibition incubated for 24 hrs by CLSI based broth microdilution method; format: functional
Staphylococcus aureus [10] = test: Disruption of cell membrane integrity in methicillin-resistant Staphylococcus aureus ATCC 33591 assessed as wrinkled cell surface at MIC incubated for 4 hrs by FESEM analysis; format: functional, organism-based
[11] = Toxicity in fasted female Sprague-Dawley rat assessed as body weight at 148 mg/kg, IG measured on same day (reference value: 165.2 +/- 8.1 g); format: organism-based; settings: in vivo, po
Staphylococcus aureus [12] = test: Antibacterial activity against Staphylococcus aureus ATCC 25923 assessed as bacterial growth inhibition incubated for 24 hrs by CLSI based broth microdilution method; format: functional
[13] = AUC (0 to t) in fasted Sprague-Dawley rat at 1 mg/kg, iv by LC-MS/MS analysis; format: ADME, organism-based; settings: in vivo
[14] = Toxicity in fasted male Sprague-Dawley rat assessed as relative kidney weight ratio at 331 mg/kg, IG measured for 14 days (reference value: 0.820 +/- 0.072); format: organism-based; settings: in vivo, po, 336 h, time 14 day
[15] = Toxicity in fasted male Sprague-Dawley rat assessed as relative lung weight ratio at 500 mg/kg, IG measured for 14 days (reference value: 0.437 +/- 0.064); format: organism-based; settings: in vivo, po, 336 h, time 14 day
Escherichia coli [16] = test: Disruption of cell membrane integrity in Escherichia coli ATCC 25922 assessed as wrinkled cell surface at MIC incubated for 4 hrs by FESEM analysis; format: functional, organism-based
Staphylococcus aureus [17] = test: Inhibition of biofilm formation of methicillin-resistant Staphylococcus aureus ATCC 33591 at 8 times MIC incubated for 24 hrs by crystal violet staining based analysis relative to control; format: functional
[18] = Toxicity in fasted female Sprague-Dawley rat assessed as relative liver weight ratio at 148 mg/kg, IG measured for 14 days (reference value: 3.199 +/- 0.062); format: organism-based; settings: in vivo, po, 336 h, time 14 day
Pseudomonas aeruginosa = test: Antibacterial activity against multidrug-resistant Pseudomonas aeruginosa 126 clinical isolate assessed as bacterial growth inhibition incubated for 24 hrs by CLSI based broth microdilution method; format: functional
[19] = Toxicity in fasted female Sprague-Dawley rat assessed as relative heart weight ratio at 224 mg/kg, IG measured for 14 days (reference value: 0.429 +/- 0.016); format: organism-based; settings: in vivo, po, 336 h, time 14 day
[20] = Toxicity in fasted male Sprague-Dawley rat assessed as body weight at 224 mg/kg, IG measured on same day (reference value: 212.7 +/- 13.2 g); format: organism-based; settings: in vivo, po
Escherichia coli [21] = test: Disruption of cell membrane integrity in Escherichia coli ATCC 25922 assessed as increase in red fluorescence at 1 to 4 times MIC incubated for 2 hrs by MycoLight green JJ98/PI staining based analysis; format: functional, organism-based
[22] = test system: Mesomycoplasma hyopneumoniae; test: Anti-mycoplasma activity against Mycoplasma hyopneumoniae LH-NCTC10130 assessed as bacterial growth inhibition incubated for 7 days; format: functional; settings: Mesomycoplasma hyopneumoniae, LH-NCTC10130, 168 h; time 7 day; read-out: MIC
Staphylococcus aureus [23] = test: Bactericidal activity against methicillin-resistant Staphylococcus aureus ATCC 33591 at 2 to 8 times MIC incubated for 8 to 24 hrs by time kill assay relative to control; format: functional; settings: time 8-24 hrs
Staphylococcus aureus [24] = test: Antibacterial activity against Staphylococcus aureus ATCC 29213 assessed as bacterial growth inhibition incubated for 24 hrs by CLSI based broth microdilution method; format: functional
[25] = Toxicity in neutropenic Kunming mouse model infected with methicillin-resistant Staphylococcus aureus ATCC 33591 assessed as survival rate at 20 mg/kg, ip measured after 7 days relative to control; format: organism-based; settings: in vivo, 168 h, time 7 day
[26] = Volume of distribution at steady state in fasted Sprague-Dawley rat at 1 mg/kg, iv by LC-MS/MS analysis; format: ADME, organism-based; settings: in vivo, read-out: Vdss
[27] = Toxicity in fasted Sprague-Dawley rat assessed as mortality rate at 148 mg/kg, IG measured for 14 days; format: organism-based; settings: in vivo, po, time 14 day
[28] = Toxicity in fasted female Sprague-Dawley rat assessed as relative spleen weight ratio at 100 mg/kg, IG measured for 14 days (reference value: 0.223 +/- 0.019); format: organism-based; settings: in vivo, po, 336 h, time 14 day
[29] = Toxicity in fasted female Sprague-Dawley rat assessed as relative lung weight ratio at 100 mg/kg, IG measured for 14 days (reference value: 0.534 +/- 0025); format: organism-based; settings: in vivo, po, 336 h, time 14 day
[30] = Toxicity in fasted male Sprague-Dawley rat assessed as relative spleen weight ratio at 100 mg/kg, IG measured for 14 days (reference value: 0.246 +/- 0.037); format: organism-based; settings: in vivo, po, 336 h, time 14 day
[31] = Toxicity in fasted female Sprague-Dawley rat assessed as relative ovary weight ratio at 331 mg/kg, IG measured for 14 days (reference value: 0.061 +/- 0.010); format: organism-based; settings: in vivo, po, 336 h, time 14 day
[32] = Toxicity in fasted male Sprague-Dawley rat assessed as relative liver weight ratio at 500 mg/kg, IG measured for 14 days (reference value: 3.616 +/- 0.286); format: organism-based; settings: in vivo, po, 336 h, time 14 day
[33] = Toxicity in fasted female Sprague-Dawley rat assessed as relative spleen weight ratio at 148 mg/kg, IG measured for 14 days (reference value: 0.223 +/- 0.019); format: organism-based; settings: in vivo, po, 336 h, time 14 day
[34] = Toxicity in fasted male Sprague-Dawley rat assessed as relative testis weight ratio at 500 mg/kg, IG measured for 14 days (reference value: 0.993 +/- 0.052); format: organism-based; settings: in vivo, po, 336 h, time 14 day
Escherichia coli [35] = test: Inhibition of biofilm formation of Escherichia coli ATCC 25922 at MIC incubated for 24 hrs by crystal violet staining based analysis relative to control; format: functional
Staphylococcus aureus [36] = test: Antibacterial activity against methicillin-resistant Staphylococcus aureus ATCC 33591 infected in neutropenic Kunming mouse model administered intraperitoneally measured after 7 days; format: functional; settings: ATCC 33591, 168 h, route ip, time 7 day

In the case of C=C[C@]1(C)C[C@@H](OC(=O)COC(=O)/C=C/c2ccc(N(C)C)cc2)[C@]2(C)[C@H](C)CC[C@]3(CCC(=O)[C@H]32)[C@@H](C)[C@@H]1O, the Activity [1] is reported as 210.5 g, the Activity [2] is reported as 30.22% and the Activity (Escherichia coli [3]) is reported as 3.99 log10CFU/ml. The Ratio [4] was 3.699, the Activity (Escherichia coli [5]) was “Active” and the clearance [6] was 35 mL/min/kg. The Activity [7] was 265.5 g, the Ratio [8] was 0.447 and the MIC (Staphylococcus aureus [9]) was 8 µg/mL (≈ 14.5 µM). The Activity (Staphylococcus aureus [10]) was “Active”, the Activity [11] was 159.8 g and the MIC (Staphylococcus aureus [12]) was 1 µg/mL (≈ 1.81 µM). It also gave an AUC(0-t) [13] of 512 ng·h/mL, a Ratio [14] of 0.831 and a Ratio [15] of 0.399. The Activity (Escherichia coli [16]) was “Active”, the “inhibition (INH)” value (Staphylococcus aureus [17]) was 97.64% and the Ratio [18] was 3.193. For the same molecule, the MIC (Pseudomonas aeruginosa) was 32 µg/mL (≈ 58 µM), the Ratio [19] was 0.453 and the Activity [20] was 210.1 g. For the same molecule, the Activity (Escherichia coli [21]) was “Active”, the MIC [22] was 0.002 µg/mL (≈ 0.00363 µM) and the Activity (Staphylococcus aureus [23]) was 100%. It also gave an MIC (Staphylococcus aureus [24]) of 2 µg/mL (≈ 3.63 µM), a Survival [25] of 90% and a Vd [26] of 2 L/kg. For the same molecule, the mortality at 336 h [27] was 0%, the Ratio [28] was 0.226 and the Ratio [29] was 0.522. For the same molecule, the Ratio [30] was 0.254, the Ratio [31] was 0.067 and the Ratio [32] was 3.551. For the same molecule, the Ratio [33] was 0.238, the Ratio [34] was 0.956 and the “inhibition (INH)” value (Escherichia coli [35]) was 58.1%. It also gave an ED50 (Staphylococcus aureus [36]) of 9.04 mg/kg.
